Values joined by “and” are separate entries in the source; they are usually repeats but may differ in a detail not shown here. Equal entries are not always repeated. Active and inactive are the calls of the source.
Tests used:
[1] = target: Voltage-dependent T-type calcium channel subunit alpha-1H (Homo sapiens, UniProt O95180); experiment: Cav3.2 T-type channel blockers, cell-based, SynthLib3 library, HEK293 Cav3.2, fluorescence (AID 493041); type: functional
SUMO E1/E2 = SUMO E1/E2 (Homo sapiens, UniProt P63279+Q9UBE0+Q9UBT2); experiment: SAR analysis of SUMOylation using HTRF in an in-Vitro dose response assay. [Related pubchem assays (depositor defined):AID2006, AID2011, AID2018, AID2069, AID2658]; type: functional
[2] = target: T1, Voltage-gated N-type calcium channel alpha-1B subunit/Amyloid beta A4 precursor protein-binding family A member 1 (Homo sapiens, UniProt Q00975+Q02410); experiment: disruptors of Mint-PDZ/N-type channel peptide interaction – biochemical, HTRF, set 2, SAR follow-up (AID 434980); type: functional
[3] = target: T1, Voltage-gated N-type calcium channel alpha-1B subunit/Amyloid beta A4 precursor protein-binding family A member 1; experiment: disruptors of Mint-PDZ/N-type channel peptide interaction – biochemical, HTRF, SAR follow-up (AID 2489); type: functional
[4] = target: Metabotropic glutamate receptor 6 (Homo sapiens, UniProt O15303); experiment: Modulation of the Metabotropic Glutamate Receptor mGluR4: Selectivity at mGluR6. [Related pubchem assays (depositor defined):AID2437, AID2807]; type: functional
[5] = target: Metabotropic glutamate receptor 2 (Rattus norvegicus, UniProt P31421); experiment: rat mGluR2 glutamate potency shift by compounds, selectivity assay for mGluR4 modulator project, cell-based (AID 2188); type: functional
[6] = target: Metabotropic glutamate receptor 3 (Rattus norvegicus, UniProt P31422); experiment: Modulation of the Metabotropic Glutamate Receptor mGluR4: Selectivity at mGluR3. [Related pubchem assays (depositor defined):AID2437, AID2807]; type: functional
[7] = target: Metabotropic glutamate receptor 8 (Rattus norvegicus, UniProt P70579); experiment: Modulation of the Metabotropic Glutamate Receptor mGluR4: Selectivity at mGluR8. [Related pubchem assays (depositor defined):AID2437, AID2807]; type: functional
[8] = target: Metabotropic glutamate receptor 1 (Rattus norvegicus, UniProt P23385); experiment: Modulation of the Metabotropic Glutamate Receptor mGluR4: Selectivity at mGluR1. [Related pubchem assays (depositor defined):AID2437, AID2807]; type: functional
[9] = NIH-3T3 fibroblast cytotoxicity, dose response, cytotoxicity control, cell-based, fluorescence, Alamar Blue, secondary assay (AID 2327); type: functional;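 further: NIH-3T3 mouse fibroblasts cultured with fluconazole at 8 µg/mL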
[10] = insulin promoter down-regulators in MIN6 cells, imaging, high-content screening, mouse beta cells (AID 1628); type: functional
[11] = cytotoxicity in MIN6 insulinoma cells, dose response, cytotoxicity control, cell-based, mouse insulinoma (AID 2122); type: functional;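 further: confirmatory high-throughput counterscreen run to flag cytotoxic compounds; mouse MIN-6 beta cells carrying an insulin promoter eGFP reporter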
[12] = C. albicans growth with fluconazole, confirmation, fluorescence, retest (AID 2467); type: functional, cell-based
[13] = Luminescence-based counterscreen assay for KLF5 inhibitors: dose response cell-based high throughput screening assay to identify cytotoxic compounds using the IEC-6 intestinal epithelial cell line. [Related pubchem assays: 1700 (Primary screen.), 1834 (Confirmation screen.), 1858 (Summary AID.), 1905 (Counterscreen.)]; type: functional
[14] = target: T2, Mannose-6-phosphate isomerase (Homo sapiens, UniProt P34949); experiment: inhibitors of human PMI, primary screen, biochemical, fluorescence intensity, coupled assay (AID 1209)
T2 sequence (P34949 whole entry): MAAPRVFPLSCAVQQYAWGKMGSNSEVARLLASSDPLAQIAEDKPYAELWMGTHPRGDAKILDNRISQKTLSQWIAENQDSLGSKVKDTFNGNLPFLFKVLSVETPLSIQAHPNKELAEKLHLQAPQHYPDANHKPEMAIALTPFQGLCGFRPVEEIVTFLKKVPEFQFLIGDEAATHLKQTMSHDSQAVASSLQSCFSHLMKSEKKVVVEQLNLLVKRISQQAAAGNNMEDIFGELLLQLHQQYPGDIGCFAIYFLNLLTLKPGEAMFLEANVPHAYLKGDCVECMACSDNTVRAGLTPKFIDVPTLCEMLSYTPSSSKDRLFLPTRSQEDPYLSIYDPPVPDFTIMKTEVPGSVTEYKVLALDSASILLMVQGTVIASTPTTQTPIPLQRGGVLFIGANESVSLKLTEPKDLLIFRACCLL

[15] = inhibitors of intracellular T. cruzi replication, confirmation, NIH3T3 host cells, beta-gal luminescence (AID 2044); type: functional, cell-based;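 further: intracellular parasites grown in NIH/3T3 mouse fibroblasts as host cells; luminescent beta-galactosidase reporter signal from transgenic T. cruzi replicating inside host cells; inhibitors lower the luminescence signal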
[16] = growth suppression of PTEN-null colon cells, dose response, cell-based, HCT116 PTEN knockout (AID 1047); type: functional;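 further: HCT116 colon tumor cells with PTEN knocked out; cells exposed to compound for 60 hours before readout; potency for loss of cell viability measured by luminescence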
[17] = cytotoxicity toward NIH3T3 fibroblasts, dose response, counter-screen, cell-based, ATP luminescence, mouse fibroblasts (AID 2010); type: functional;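 further: cells exposed to compound for about 90 hours before reading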
[18] = growth suppression of beta-catenin-knockout colon cells, dose response, cell-based, HCT116, human colon tumor (AID 1045); type: functional;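 further: HCT116 colon tumor cells with beta catenin knocked out; cells exposed to compound for 60 hours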
Nonstructural protein 1 = Nonstructural protein 1 (Influenza A virus, UniProt Q194T2); type: functional, Influenza A virus (A/California/07/2009(H1N1))
INS1 = experiment: beta cell apoptosis inhibitors, cytokine rescue, dose response, luminescence, retest (AID 449756); type: functional, cell-based; details: Rattus norvegicus;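 further: cell death triggered by IL-1 beta plus TNF-alpha plus IFN-gamma mixture; protective hits raise ATP signal compared with cytokine alone wells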
[19] = MDA-MB-231 cell growth inhibition, dose response, cytotoxicity control for RAD54 inhibitor project, CellTiter-Glo luminescence, cherry-pick (AID 651692); type: functional, cell-based
[20] = target: T3, DNA repair and recombination protein RAD54-like (Homo sapiens, UniProt Q92698); experiment: inhibitors of human RAD54 branch migration, confirmation, biochemical, fluorescence, cherry-picked samples, dose series (AID 651657); type: functional
T3 sequence (Q92698 whole entry): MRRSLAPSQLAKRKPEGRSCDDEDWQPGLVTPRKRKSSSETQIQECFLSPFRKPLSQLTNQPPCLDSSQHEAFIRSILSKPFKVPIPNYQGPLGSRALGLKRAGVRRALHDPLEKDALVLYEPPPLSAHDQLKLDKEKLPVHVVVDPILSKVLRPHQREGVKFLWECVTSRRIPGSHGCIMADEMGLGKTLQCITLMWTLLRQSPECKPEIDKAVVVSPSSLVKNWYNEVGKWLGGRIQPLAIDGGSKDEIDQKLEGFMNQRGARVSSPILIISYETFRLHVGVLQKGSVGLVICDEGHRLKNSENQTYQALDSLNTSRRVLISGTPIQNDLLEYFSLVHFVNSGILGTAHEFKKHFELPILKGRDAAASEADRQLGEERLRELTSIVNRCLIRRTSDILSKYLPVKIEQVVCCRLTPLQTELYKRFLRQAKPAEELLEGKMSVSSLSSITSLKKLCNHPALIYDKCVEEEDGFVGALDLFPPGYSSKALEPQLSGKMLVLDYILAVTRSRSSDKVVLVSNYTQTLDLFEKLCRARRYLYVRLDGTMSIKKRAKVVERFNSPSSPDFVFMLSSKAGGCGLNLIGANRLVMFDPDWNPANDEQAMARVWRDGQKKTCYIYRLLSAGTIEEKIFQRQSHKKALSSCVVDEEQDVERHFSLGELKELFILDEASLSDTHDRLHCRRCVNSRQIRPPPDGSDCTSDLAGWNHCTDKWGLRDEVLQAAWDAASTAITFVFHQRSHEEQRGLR

T1 sequence (Q00975 whole entry): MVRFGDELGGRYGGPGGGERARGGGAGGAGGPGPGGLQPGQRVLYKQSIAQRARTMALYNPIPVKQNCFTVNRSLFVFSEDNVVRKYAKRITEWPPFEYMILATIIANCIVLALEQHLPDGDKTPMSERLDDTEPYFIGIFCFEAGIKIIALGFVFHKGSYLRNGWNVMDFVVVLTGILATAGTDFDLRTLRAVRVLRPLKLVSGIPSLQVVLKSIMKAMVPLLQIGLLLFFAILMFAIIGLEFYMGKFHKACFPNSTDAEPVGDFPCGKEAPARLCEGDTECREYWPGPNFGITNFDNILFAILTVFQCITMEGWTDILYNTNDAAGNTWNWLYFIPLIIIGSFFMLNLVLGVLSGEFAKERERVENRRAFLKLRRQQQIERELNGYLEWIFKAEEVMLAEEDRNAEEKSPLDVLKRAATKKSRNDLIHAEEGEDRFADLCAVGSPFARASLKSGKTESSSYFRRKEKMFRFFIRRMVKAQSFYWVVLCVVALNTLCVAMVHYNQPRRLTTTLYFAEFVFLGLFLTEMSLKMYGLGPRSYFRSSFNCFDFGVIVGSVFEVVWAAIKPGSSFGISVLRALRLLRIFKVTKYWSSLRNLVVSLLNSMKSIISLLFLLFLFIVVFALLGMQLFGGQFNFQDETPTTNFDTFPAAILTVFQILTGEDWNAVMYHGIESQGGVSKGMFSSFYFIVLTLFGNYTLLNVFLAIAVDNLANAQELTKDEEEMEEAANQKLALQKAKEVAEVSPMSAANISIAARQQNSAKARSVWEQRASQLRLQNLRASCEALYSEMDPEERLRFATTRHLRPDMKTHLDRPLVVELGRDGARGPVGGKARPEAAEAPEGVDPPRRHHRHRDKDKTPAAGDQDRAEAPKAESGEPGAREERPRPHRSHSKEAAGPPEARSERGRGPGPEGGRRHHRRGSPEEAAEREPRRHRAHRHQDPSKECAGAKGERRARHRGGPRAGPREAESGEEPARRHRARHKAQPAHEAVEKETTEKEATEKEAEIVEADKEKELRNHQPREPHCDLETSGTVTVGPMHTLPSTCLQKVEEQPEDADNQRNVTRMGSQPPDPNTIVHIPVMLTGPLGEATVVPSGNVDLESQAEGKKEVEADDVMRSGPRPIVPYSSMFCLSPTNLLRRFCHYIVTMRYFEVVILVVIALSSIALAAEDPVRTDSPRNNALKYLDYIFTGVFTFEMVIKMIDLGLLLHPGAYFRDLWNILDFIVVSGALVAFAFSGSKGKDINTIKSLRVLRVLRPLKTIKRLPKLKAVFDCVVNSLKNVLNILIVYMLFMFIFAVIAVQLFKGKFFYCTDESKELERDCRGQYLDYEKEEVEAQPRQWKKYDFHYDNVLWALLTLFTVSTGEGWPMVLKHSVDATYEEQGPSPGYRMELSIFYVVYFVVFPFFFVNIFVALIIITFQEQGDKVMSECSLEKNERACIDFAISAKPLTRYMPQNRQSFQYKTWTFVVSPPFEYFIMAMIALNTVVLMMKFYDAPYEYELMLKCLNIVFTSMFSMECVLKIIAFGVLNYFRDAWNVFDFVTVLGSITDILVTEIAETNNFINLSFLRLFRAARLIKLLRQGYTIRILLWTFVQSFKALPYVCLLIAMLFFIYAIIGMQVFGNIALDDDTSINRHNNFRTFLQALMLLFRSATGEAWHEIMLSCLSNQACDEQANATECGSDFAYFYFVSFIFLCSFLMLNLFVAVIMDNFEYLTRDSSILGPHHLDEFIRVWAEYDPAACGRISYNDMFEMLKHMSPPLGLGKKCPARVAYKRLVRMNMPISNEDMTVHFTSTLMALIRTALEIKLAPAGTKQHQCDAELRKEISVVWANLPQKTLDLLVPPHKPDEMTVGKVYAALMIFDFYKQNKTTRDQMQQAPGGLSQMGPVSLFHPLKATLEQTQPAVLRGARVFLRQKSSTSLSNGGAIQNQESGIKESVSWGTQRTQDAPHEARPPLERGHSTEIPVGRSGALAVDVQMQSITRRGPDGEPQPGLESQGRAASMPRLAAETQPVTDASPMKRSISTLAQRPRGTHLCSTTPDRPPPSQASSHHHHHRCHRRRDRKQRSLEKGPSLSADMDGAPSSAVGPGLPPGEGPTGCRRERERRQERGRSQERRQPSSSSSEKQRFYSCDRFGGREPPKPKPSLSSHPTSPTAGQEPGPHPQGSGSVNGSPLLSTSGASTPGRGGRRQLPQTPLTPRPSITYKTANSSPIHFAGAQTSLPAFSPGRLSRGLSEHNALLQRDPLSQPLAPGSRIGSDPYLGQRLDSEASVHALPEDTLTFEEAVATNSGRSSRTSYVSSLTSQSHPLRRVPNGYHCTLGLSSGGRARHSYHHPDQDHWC
T1 sequence (Q02410 whole entry): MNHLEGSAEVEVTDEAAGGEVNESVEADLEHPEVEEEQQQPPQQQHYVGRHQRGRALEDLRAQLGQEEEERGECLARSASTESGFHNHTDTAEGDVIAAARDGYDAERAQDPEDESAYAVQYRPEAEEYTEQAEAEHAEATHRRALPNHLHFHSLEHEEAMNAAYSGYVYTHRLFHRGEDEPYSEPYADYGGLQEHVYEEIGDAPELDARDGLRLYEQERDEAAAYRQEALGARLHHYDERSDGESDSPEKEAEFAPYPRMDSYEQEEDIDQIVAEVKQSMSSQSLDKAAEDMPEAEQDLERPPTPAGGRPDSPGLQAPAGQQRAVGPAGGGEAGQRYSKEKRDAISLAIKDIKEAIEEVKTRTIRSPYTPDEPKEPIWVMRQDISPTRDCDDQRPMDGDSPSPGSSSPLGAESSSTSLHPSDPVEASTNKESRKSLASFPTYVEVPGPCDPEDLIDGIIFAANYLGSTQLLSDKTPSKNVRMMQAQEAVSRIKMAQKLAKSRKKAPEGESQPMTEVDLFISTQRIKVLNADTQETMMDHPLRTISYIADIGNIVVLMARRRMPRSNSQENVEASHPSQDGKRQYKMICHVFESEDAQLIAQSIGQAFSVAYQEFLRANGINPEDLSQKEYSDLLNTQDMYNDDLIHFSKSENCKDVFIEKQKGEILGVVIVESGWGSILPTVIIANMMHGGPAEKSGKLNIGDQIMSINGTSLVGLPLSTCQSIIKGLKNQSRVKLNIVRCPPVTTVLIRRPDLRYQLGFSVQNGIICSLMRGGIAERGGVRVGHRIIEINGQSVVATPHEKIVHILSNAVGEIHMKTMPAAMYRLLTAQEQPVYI
Sequence of SUMO E1/E2 (Q9UBE0 whole entry): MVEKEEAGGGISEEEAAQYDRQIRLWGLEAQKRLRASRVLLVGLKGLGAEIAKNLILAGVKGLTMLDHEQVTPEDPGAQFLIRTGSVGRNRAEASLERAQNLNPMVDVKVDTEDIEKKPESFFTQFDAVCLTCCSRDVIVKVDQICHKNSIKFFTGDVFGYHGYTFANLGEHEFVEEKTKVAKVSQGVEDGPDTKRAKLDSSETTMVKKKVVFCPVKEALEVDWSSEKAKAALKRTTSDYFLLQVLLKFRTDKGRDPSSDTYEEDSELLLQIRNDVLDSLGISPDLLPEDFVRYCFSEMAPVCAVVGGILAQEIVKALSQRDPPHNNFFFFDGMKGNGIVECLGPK
Sequence of SUMO E1/E2 (Q9UBT2 whole entry): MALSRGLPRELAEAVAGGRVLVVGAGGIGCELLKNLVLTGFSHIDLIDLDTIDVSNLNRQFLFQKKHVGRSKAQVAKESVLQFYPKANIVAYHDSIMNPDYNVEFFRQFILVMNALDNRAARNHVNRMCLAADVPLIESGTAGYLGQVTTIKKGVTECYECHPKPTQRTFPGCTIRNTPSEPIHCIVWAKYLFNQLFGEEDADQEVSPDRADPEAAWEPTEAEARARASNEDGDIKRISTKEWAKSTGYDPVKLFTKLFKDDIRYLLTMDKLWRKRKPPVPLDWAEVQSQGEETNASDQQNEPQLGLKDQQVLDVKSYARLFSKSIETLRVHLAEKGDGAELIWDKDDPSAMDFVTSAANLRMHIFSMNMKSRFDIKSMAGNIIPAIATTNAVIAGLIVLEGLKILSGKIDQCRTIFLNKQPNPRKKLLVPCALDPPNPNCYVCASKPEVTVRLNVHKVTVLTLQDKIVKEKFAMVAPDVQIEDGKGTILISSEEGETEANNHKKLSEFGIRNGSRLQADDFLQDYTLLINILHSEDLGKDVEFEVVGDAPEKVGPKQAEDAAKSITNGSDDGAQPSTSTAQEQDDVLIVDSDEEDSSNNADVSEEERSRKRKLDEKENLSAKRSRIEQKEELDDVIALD
Sequence of SUMO E1/E2 (P63279 whole entry): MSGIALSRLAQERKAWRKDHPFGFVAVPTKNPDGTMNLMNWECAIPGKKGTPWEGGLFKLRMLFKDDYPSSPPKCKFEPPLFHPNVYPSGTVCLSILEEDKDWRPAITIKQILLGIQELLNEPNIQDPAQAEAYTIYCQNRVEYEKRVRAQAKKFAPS
Sequence of Nonstructural protein 1 (Q194T2 whole entry): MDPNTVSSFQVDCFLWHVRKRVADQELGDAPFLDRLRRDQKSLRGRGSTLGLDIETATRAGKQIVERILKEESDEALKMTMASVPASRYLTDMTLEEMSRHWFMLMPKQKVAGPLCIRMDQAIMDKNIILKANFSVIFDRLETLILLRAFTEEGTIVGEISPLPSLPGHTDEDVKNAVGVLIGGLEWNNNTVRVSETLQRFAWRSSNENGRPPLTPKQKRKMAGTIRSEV

Structure (SMILES): O=C(NCC1[C@H]2CN(CC3CCCC3)C[C@@H]12)c1cc(Cl)cc(Cl)c1 (stereo partly drawn)
- EC50 [1]: 3000 nM (active)

Structure (SMILES): O=C(COC(=O)c1cc(-c2ccco2)nc2ccccc12)NCc1ccc(Cl)cc1
- IC50 (SUMO E1/E2): 2.84 µM (active) and 4.46 µM (active)
- IC50 [2]: 7.73 µM (active) and 9.82 µM (active)
- IC50 [3]: 10.4 µM (active) and > 56.8 µM (inactive)

Structure (SMILES): O=C(Nc1ccc(N2C(=O)[C@H]3[C@H](C2=O)[C@H]2C=C[C@@H]3C2)c(Cl)c1)c1ccccn1
- EC50 [4]: 2510 nM (active)
- EC50 [5]: 787 nM (inactive)
- EC50 [6]: 514 nM (inactive)
- EC50 [7]: 11000 nM (inactive)
- EC50 [8]: 1400 nM (inactive)

Structure (SMILES): Oc1cccc2ccc(Nc3ccccn3)nc12
- EC50 [9]: 4930 nM (inconclusive)
- IC50 [10]: 3030 nM (active)
- IC50 [11]: 2350 nM (active)
- EC50 [12]: 1550 nM (active)
- IC50 [13]: 6800 nM (active)
- IC50 [14]: > 50000 nM (not active)
- EC50 [15]: 1120 nM (active)
- EC50 [16]: 1230 nM (active)
- EC50 [17]: 6000 nM (active)
- EC50 [18]: 713 nM (active)
- IC50 (Nonstructural protein 1): 2350 nM (active)
- AC50 (INS1): 1180 nM (active)
- AC50 [19]: 15100 nM (active)
- AC50 [20]: 15500 nM (active)

Reference: ChEMBL document CHEMBL1201862, “PubChem BioAssay data set” (2004)
